In patent US7977365B2 (priority 2006, dated 2011):
Like-named read-outs stand apart in the source and are kept apart here.

Legend:
[1] = test system: Lassa GP-pseudotyped-virus; test: microbe, parasite or virus in culture; assay type: cell-based, Lassa fever virus; conditions: for EC50: Human immunodeficiency virus 1, read-out: Activity against Lassa GP-pseudotyped-virus EC50
LASV GP = test: organism not typed; assay type: cell-based; conditions: HEK-293T
[2] = test system: Lassa fever virus (Josiah strain); test: organism not typed; assay type: cell-based; conditions: read-out: Activity vs. LFV EC50
Machupo GP = test: organism not typed; assay type: cell-based; conditions: HEK-293T, 72 h, read-out: IC50 ± SEM, Machupo GP pseudotype
in vitro = conditions: human
[3] = at 50 μM
[4] = test system: envelope of the New World arenavirus Guanarito; test: microbe, parasite or virus in culture; assay type: cell-based; conditions: read-out: EC50, Guanarito envelope pseudotyped viral infection
Tacaribe GP = test: organism not typed; assay type: cell-based; conditions: HEK-293T, 72 h, read-out: IC50 ± SEM, Tacaribe GP pseudotype
VSVg = test: microbe, parasite or virus in culture; assay type: cell-based, vesicular stomatitis virus; conditions: read-out: IC50 ± SEM, VSV envelope pseudotype
Sabia GP = test: organism not typed; assay type: cell-based; conditions: HEK-293T, 72 h, read-out: IC50 ± SEM, Sabia GP pseudotype
unselected TCRV = assay type: cell-based
Guanarito GP = test: organism not typed; assay type: cell-based; conditions: HEK-293T, 72 h, read-out: IC50 ± SEM, Guanarito GP pseudotype
LCMV GP = test: organism not typed; assay type: cell-based; conditions: HEK-293T, 72 h, read-out: IC50 ± SEM, LCMV (wt) GP pseudotype
[5] = test system: envelope of the New World arenavirus Tacaribe; test: microbe, parasite or virus in culture; assay type: cell-based; conditions: read-out: EC50, Tacaribe envelope pseudotyped viral infection
Pichinde GP = test: organism not typed; assay type: cell-based; conditions: HEK-293T, 72 h, read-out: IC50 ± SEM, Pichinde (wt) GP pseudotype
Junín GP = test: organism not typed; assay type: cell-based; conditions: HEK-293T, 72 h, read-out: IC50 ± SEM, Junín GP pseudotype

With `COc1ccc(-n2cnc3cc(N(Cc4ccc(C(C)C)cc4)C(C)=O)ccc32)cc1` [Compound 600362] the specificity [1] was 40 and the EC50 [1] was 400 nM.

In the case of `COc1ccc(-n2cnc3cc(NCc4cccc(OC)c4)ccc32)cc1` [Compound 600191, (3-methoxy-benzyl)-[1-(4-methoxy-phenyl)-1H-benzimidazol-5-yl]-amine], the specificity [1] is reported as over 300 and the EC50 [1] is reported as 40 nM.

`COc1ccc(-n2cnc3cc(NCc4ccc(Cl)cc4)ccc32)cc1` [Compound 600170, (4-chloro-benzyl)-[1-(4-methoxy-phenyl)-1H-benzimidazol-5-yl]-amine] gave a specificity [1] of over 200 and an EC50 [1] of 40 nM.

In the case of `CCOc1ccc(CNc2ccc3c(c2)ncn3-c2ccc(OC)cc2)cc1` [Compound 600147, (4-ethoxy-benzyl)-[1-(4-methoxy-phenyl)-1H-benzimidazol-5-yl]-amine], the specificity [1] is reported as over 4000 and the EC50 [1] is reported as 3 nM.

`COc1ccc(-n2cnc3cc(NCc4ccccc4O)ccc32)cc1` [Compound 600153, 2-[[1-(4-methoxy-phenyl)-1H-benzimidazol-5-ylamino]-methyl]-phenol] showed a specificity [1] of over 60 and an EC50 [1] of 180 nM.

`COc1ccc(-n2cnc3cc(N(Cc4ccc(C(C)C)cc4)S(=O)(=O)c4ccc(C)cc4)ccc32)cc1` [Compound 600363, N-(4-isopropyl-benzyl)-N-[1-(4-methoxy-phenyl)-1H-benzimidazol-5-yl]-4-methylbenzenesulfonamide] showed a specificity [1] of 100 and an EC50 [1] of 200 nM.

Work on `COc1ccc(-n2cnc3cc(NCc4cccc5ccccc45)ccc32)cc1` [Compound 600149, [1-(4-methoxy-phenyl)-1H-benzimidazol-5-yl]-napthalen-1-ylmethyl-amine] yielded a specificity [1] of over 200 and an EC50 [1] of 60 nM.

`COc1ccc(-n2cnc3cc(NCc4cccc(OC)c4OC)ccc32)cc1` [Compound 600189, (2,3-dimethoxy-benzyl)-[1-(4-methoxy-phenyl)-1H-benzimidazol-5-yl]-amine] showed a specificity [1] of 100 and an EC50 [1] of 100 nM.

`COc1ccc(-n2cnc3cc(NCc4ccc(C)cc4)ccc32)cc1` [Compound 600188, [1-(4-methoxy-phenyl)-1H-benzimidazol-5-yl]-(4-methyl-benzyl)-amine] showed a specificity [1] of over 4000 and an EC50 [1] of 3 nM.

In the case of `COc1ccccc1-n1cnc2cc(NCc3cccc(OC)c3OC)ccc21` [Compound 600192, (2,3-dimethoxy-benzyl)-[1-(2-methoxy-phenyl)-1H-benzimidazol-5-yl]-amine], the specificity [1] is reported as “none” and the EC50 [1] is reported as 5000 nM.

In the case of `CCOc1ccc(CN(c2ccc3c(c2)ncn3-c2ccccc2OC)S(=O)(=O)c2ccc(C)cc2)cc1` [Compound 600179, N-(4-ethoxy-benzyl)-N-[1-(2-methoxy-phenyl)-1H-benzimidazol-5-yl]-4-methylbenzenesulfonamide], the specificity [1] is reported as over 100 and the EC50 [1] is reported as 110 nM.

`COc1ccc(CNc2ccc3c(c2)ncn3-c2ccccc2)cc1` [Compound 600196, (4-methoxy-benzyl)-(1-phenyl-1H-benzimidazol-5-yl)-amine] showed a specificity [1] of over 400 and an EC50 [1] of 30 nM.

`Brc1ccc(CNc2ccc3c(c2)ncn3-c2ccccc2)cc1` [Compound 600173, (4-bromo-benzyl)-(1-phenyl-1H-benzimidazol-5-yl)-amine] showed a specificity [1] of over 30 and an EC50 [1] of 400 nM.

Compound `COc1ccc(CNc2ccc3c(c2)ncn3-c2ccc(OC)cc2)cc1` [Compound 600037, (4-methoxy-benzyl)-[1-(4-methoxy-phenyl)-1H-benzimidazol-5-yl]-amine] has an IC50 (LASV GP; read-out: average IC50 against LASV GP pseudotypes) of 16 nM, an EC50 [2] of under 100 nM and a specificity [1] of 900. For the same compound, the EC50 [1] was 16 nM.

`COc1ccc(-n2cnc3cc(NCc4ccc(OC)c(OC)c4)ccc32)cc1` [Compound 600172, (3,4-dimethoxy-benzyl)-[1-(4-methoxy-phenyl)-1H-benzimidazol-5-yl]-amine] gave a specificity [1] of over 10 and an EC50 [1] of 700 nM.

`COc1ccc(-n2cnc3cc(NCc4ccc(Br)cc4)ccc32)cc1` [Compound 600145, (4-bromo-benzyl)-[1-(4-methoxy-phenyl)-1H-benzimidazol-5-yl]-amine] gave a specificity [1] of 300 and an EC50 [1] of 40 nM.

In the case of `COc1ccc(CNc2ccc3c(c2)ncn3-c2ccccc2OC)cc1` [Compound 600190, (4-methoxy-benzyl)-[1-(2-methoxy-phenyl)-1H-benzimidazol-5-yl]-amine], the specificity [1] is reported as 3 and the EC50 [1] is reported as 2000 nM.

Compound `COc1ccc(-n2cnc3cc(NCc4ccc(C(C)C)cc4)ccc32)cc1` [Compound 600193, (4-isopropyl-benzyl)-[1-(4-methoxy-phenyl)-1H-benzimidazol-5-yl]-amine] has an IC50 (Machupo GP) of 2.3 ± 1.3 nM, a CC50 (in vitro) of 48000 nM and an IC50 (LASV GP; 72 h, read-out: IC50 ± SEM, Lassa (LASV wt) GP pseudotype) of 1.6 ± 0.3 nM. For the same compound, the solubility observation [3] was “visual evidence of insolubility”, the EC50 [4] was under 1 nM and the IC50 (Tacaribe GP) was 4 ± 2 nM. The IC50 (VSVg; Vesicular stomatitis virus, HEK-293T) was about 30000 nM, the IC50 (VSVg) was 29000 ± 2500 nM and the IC50 (Sabia GP) was 12 ± 3 nM. The “reduction of TCRV titer” value (unselected TCRV) was 1000 fold, the IC50 (Guanarito GP) was 0.34 ± 0.07 nM and the IC50 (LCMV GP) was 31000 ± 4000 nM. It also gave an EC50 [5] of 4 nM, an IC50 (Pichinde GP) of 2600 ± 500 nM and an EC50 [2] of under 100 nM. The IC50 (Junín GP) was 0.2 ± 0.03 nM, the specificity [1] was 13,000 and the EC50 [1] was 1.1 nM.

With `COc1ccccc1-n1cnc2cc(NCc3ccc(N(C)C)cc3)ccc21` [Compound 600137, (4-dimethylamino-benzyl)-[1-(2-methoxy-phenyl)-1H-benzimidazol-5-yl]-amine] the EC50 [1] was over 12000 nM.

For `CN(C)c1ccc(CNc2ccc3c(c2)ncn3-c2ccccc2)cc1` [Compound 600144, (4-dimethylamino-benzyl)-[1-phenyl-1H-benzimidazol-5-yl]-amine], the specificity [1] was over 1 and the EC50 [1] was 11000 nM.

For `COc1ccc(CNc2ccc3c(c2)ncn3-c2ccc(C)cc2)cc1` [Compound 600169, (4-methoxy-benzyl)-(1-p-tolyl-1H-benzimidazol-5-yl)-amine], the specificity [1] was over 500 and the EC50 [1] was 20 nM.

With `COc1ccc(-n2cnc3cc(NCc4ccccc4OC)ccc32)cc1` [Compound 600146, (2-methoxy-benzyl)-[1-(4-methoxy-phenyl)-1H-benzimidazol-5-yl]-amine] the specificity [1] was over 40 and the EC50 [1] was 300 nM.
